Results from US10597388B2, “Pyridazinone herbicides” (FMC CORPORATION, priority 2014, dated 2020).

What was measured:
Assay type in all cases: in vivo
[1] = system: johnsongrass (Sorghum halepense); assay: Test C greenhouse herbicide test, pre- and postemergence
Text: (§1) Seeds of plant species selected from blackgrass (Alopecurus myosuroides), ryegrass, Italian (Italian ryegrass, Lolium multiflorum), wheat (winter wheat, Triticum aestivum), galium (catchweed bedstraw, Galium aparine), corn (Zea mays), large crabgrass, large (large crabgrass, Digitaria sanguinalis), foxtail, giant (giant foxtail, Setaria faberii), johnsongrass (Sorghum halepense), lambsquarters (Chenopodium album), morningglory (Ipomoea coccinea), nutsedge, yellow (yellow nutsedge, Cyperus esculentus), pigweed (Amaranthus retroflexus), ragweed (common ragweed, Ambrosia elatior), soybean (Glycine max), barnyardgrass (Echinochloa crus-galli), oilseed rape (Brassica napus), waterhemp (common waterhemp, Amaranthus rudis), and velvetleaf (Abutilon theophrasti) were planted into a blend of loam soil and sand and treated preemergence with test chemicals formulated in a non-phytotoxic solvent mixture which included a surfactant.
(§2) At the same time, plants selected from these crop and weed species and also chickweed (common chickweed, Stellaria media), kochia (Kochia scoparia), and oat, wild (wild oat, Avena fatua), were planted in pots containing Redi-Earth® planting medium (Scotts Company, 14111 Scottslawn Road, Marysville, Ohio 43041) comprising spaghnum peat moss, vermiculite, wetting agent and starter nutrients and treated with postemergence applications of test chemicals formulated in the same manner. Plants ranged in height from 2 to 18 cm (1- to 4-leaf stage) for postemergence treatments. Treated plants and controls were maintained in a greenhouse for 13 to 15 d, after which time all species were compared to controls and visually evaluated. Plant response ratings, summarized in Table C, are based on a scale of 0 to 100 where 0 is no effect and 100 is complete control. A dash (-) response means no test result.

[2] = system: blackgrass (Alopecurus myosuroides); assay: as above
Text: as §1, §2

[3] = system: pigweed (Amaranthus retroflexus); assay: as above
Text: as §1, §2

[4] = system: crabgrass, large (large crabgrass, Digitaria sanguinalis); assay: as above
Text: as §1, §2

[5] = system: morningglory (Ipomoea coccinea); assay: as above
Text: as §1, §2

[6] = system: wheat (winter wheat, Triticum aestivum); assay: as above
Text: as §1, §2

[7] = system: foxtail, giant (giant foxtail, Setaria faberii); assay: as above
Text: as §1, §2

[8] = system: lambsquarters (Chenopodium album); assay: as above
Text: as §1, §2

[9] = system: barnyardgrass (Echinochloa crus-galli); assay: as above
Text: as §1, §2

[10] = system: corn (Zea mays); assay: as above
Text: as §1, §2

[11] = system: waterhemp (common waterhemp, Amaranthus rudis); assay: as above
Text: as §1, §2

[12] = system: soybean (Glycine max); assay: as above
Text: as §1, §2

[13] = system: ragweed (common ragweed, Ambrosia elatior); assay: as above
Text: as §1, §2

[14] = system: ryegrass, Italian (Italian ryegrass, Lolium multiflorum); assay: as above
Text: as §1, §2

[15] = system: oat, wild (wild oat, Avena fatua); assay: Test C greenhouse herbicide test, postemergence
Method in brief: (§3)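 Visual injury scores (0–100, where 100 means complete control) were assigned 13 to 15 d after postemergence application, by comparison with untreated plants. Treated seedlings stood 2 to 18 cm tall, at the 1- to 4-leaf stage.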

[16] = system: kochia (Kochia scoparia); assay: Test C greenhouse herbicide test, postemergence
Method in brief: as §3

[17] = Postemergence, 31 g ai/ha, 0 to 100 scale (0 no effect, 100 complete control)
[18] = Postemergence, 125 g ai/ha, scale 0 to 100, 0 is no effect, 100 is complete control
[19] = Postemergence, 250 g ai/ha, scale 0 to 100, 0 no effect, 100 complete control, 13 to 15 d
[20] = Preemergence, 31 g ai/ha, scale 0 to 100, 0 is no effect, 100 is complete control
[21] = Preemergence, 62 g ai/ha, scale 0 to 100, 0 is no effect, 100 is complete control
[22] = Preemergence, 125 g ai/ha, scale 0 to 100, 0 is no effect, 100 is complete control
[23] = Preemergence, 250 g ai/ha, scale 0 to 100 (0 no effect, 100 complete control)
[24] = postemergence, 62 g ai/ha, scale 0 to 100, 0 no effect, 100 complete control

CCOC(=O)Oc1c(C)nn(C)c(=O)c1-c1c(CC)ccc2ccccc12 [Compound 37] was tested, and the “Johnsongrass plant response rating” value [1, 17] was 0, the “Plant response rating, Johnsongrass” value [1, 18] was 5 and the “Plant response rating, Johnsongrass” value [1, 19] was 35. For the same compound, the “Plant response rating, Johnsongrass” value [1, 20] was 0, the “Plant response rating, Johnsongrass” value [1, 21] was 0 and the “Plant response rating, Johnsongrass” value [1, 22] was 5. The “Johnsongrass plant response rating” value [1, 23] was 0, the “Johnsongrass plant response rating” value [1, 24] was 5 and the “Blackgrass plant response rating” value [2, 17] was 35. The “Plant response rating, Blackgrass” value [2, 18] was 80, the “Plant response rating, Blackgrass” value [2, 19] was 85 and the “Plant response rating, Blackgrass” value [2, 20] was 10. For the same compound, the “Plant response rating, Blackgrass” value [2, 21] was 30, the “Plant response rating, Blackgrass” value [2, 22] was 90 and the “Blackgrass plant response rating” value [2, 23] was 90. For the same compound, the “Blackgrass plant response rating” value [2, 24] was 40, the “Pigweed plant response rating” value [3, 17] was 85 and the “Plant response rating, Pigweed” value [3, 18] was 95. For the same compound, the “Plant response rating, Pigweed” value [3, 19] was 95, the “Plant response rating, Pigweed” value [3, 20] was 98 and the “Plant response rating, Pigweed” value [3, 21] was 98. For the same compound, the “Plant response rating, Pigweed” value [3, 22] was 100, the “Pigweed plant response rating” value [3, 23] was 100 and the “Pigweed plant response rating” value [3, 24] was 100. The “Crabgrass, Large plant response rating” value [4, 17] was 10, the “Plant response rating, Crabgrass, Large” value [4, 18] was 25 and the “Plant response rating, Crabgrass, Large” value [4, 19] was 35. The “Plant response rating, Crabgrass, Large” value [4, 20] was 5, the “Plant response rating, Crabgrass, Large” value [4, 21] was 5 and the “Plant response rating, Crabgrass, Large” value [4, 22] was 20. The “Crabgrass, Large plant response rating” value [4, 23] was 25, the “Crabgrass, Large plant response rating” value [4, 24] was 20 and the “Morningglory plant response rating” value [5, 17] was 90. The “Plant response rating, Morningglory” value [5, 18] was 98, the “Plant response rating, Morningglory” value [5, 19] was 98 and the “Plant response rating, Morningglory” value [5, 20] was 70. The “Plant response rating, Morningglory” value [5, 21] was 80, the “Plant response rating, Morningglory” value [5, 22] was 90 and the “Morningglory plant response rating” value [5, 23] was 98. The “Morningglory plant response rating” value [5, 24] was 95, the “Wheat plant response rating” value [6, 17] was 30 and the “Plant response rating, Wheat” value [6, 18] was 30. The “Plant response rating, Wheat” value [6, 19] was 35, the “Plant response rating, Wheat” value [6, 20] was 0 and the “Plant response rating, Wheat” value [6, 21] was 0. The “Plant response rating, Wheat” value [6, 22] was 5, the “Wheat plant response rating” value [6, 23] was 45 and the “Wheat plant response rating” value [6, 24] was 0. The “Foxtail, Giant plant response rating” value [7, 17] was 25, the “Plant response rating, Foxtail, Giant” value [7, 18] was 60 and the “Plant response rating, Foxtail, Giant” value [7, 19] was 85. For the same compound, the “Plant response rating, Foxtail, Giant” value [7, 20] was 65, the “Plant response rating, Foxtail, Giant” value [7, 21] was 75 and the “Plant response rating, Foxtail, Giant” value [7, 22] was 85. For the same compound, the “Foxtail, Giant plant response rating” value [7, 23] was 85, the “Foxtail, Giant plant response rating” value [7, 24] was 35 and the “Lambsquarters plant response rating” value [8, 17] was 90. The “Plant response rating, Lambsquarters” value [8, 18] was 95, the “Plant response rating, Lambsquarters” value [8, 19] was 100 and the “Plant response rating, Lambsquarters” value [8, 20] was 85. For the same compound, the “Plant response rating, Lambsquarters” value [8, 21] was 60, the “Plant response rating, Lambsquarters” value [8, 22] was 85 and the “Lambsquarters plant response rating” value [8, 23] was 90. The “Lambsquarters plant response rating” value [8, 24] was 90, the “Barnyardgrass plant response rating” value [9, 17] was 25 and the “Plant response rating, Barnyardgrass” value [9, 18] was 60. For the same compound, the “Plant response rating, Barnyardgrass” value [9, 19] was 90, the “Plant response rating, Barnyardgrass” value [9, 20] was 10 and the “Plant response rating, Barnyardgrass” value [9, 21] was 30. The “Plant response rating, Barnyardgrass” value [9, 22] was 70, the “Barnyardgrass plant response rating” value [9, 23] was 80 and the “Barnyardgrass plant response rating” value [9, 24] was 20. For the same compound, the “Corn plant response rating” value [10, 17] was 0, the “Plant response rating, Corn” value [10, 18] was 20 and the “Plant response rating, Corn” value [10, 19] was 30. The “Plant response rating, Corn” value [10, 20] was 0, the “Plant response rating, Corn” value [10, 21] was 0 and the “Plant response rating, Corn” value [10, 22] was 0. For the same compound, the “Corn plant response rating” value [10, 23] was 20, the “Corn plant response rating” value [10, 24] was 10 and the “Waterhemp plant response rating” value [11, 17] was 85. For the same compound, the “Plant response rating, Waterhemp” value [11, 18] was 80, the “Plant response rating, Waterhemp” value [11, 19] was 98 and the “Plant response rating, Waterhemp” value [11, 20] was 90. The “Plant response rating, Waterhemp” value [11, 21] was 95, the “Plant response rating, Waterhemp” value [11, 22] was 95 and the “Waterhemp plant response rating” value [11, 23] was 100. For the same compound, the “Waterhemp plant response rating” value [11, 24] was 80, the “Soybean plant response rating” value [12, 17] was 10 and the “Plant response rating, Soybean” value [12, 18] was 15. The “Plant response rating, Soybean” value [12, 19] was 25, the “Plant response rating, Soybean” value [12, 20] was 0 and the “Plant response rating, Soybean” value [12, 21] was 30. The “Plant response rating, Soybean” value [12, 22] was 20, the “Soybean plant response rating” value [12, 23] was 65 and the “Soybean plant response rating” value [12, 24] was 5. For the same compound, the “Ragweed plant response rating” value [13, 17] was 90, the “Plant response rating, Ragweed” value [13, 18] was 98 and the “Plant response rating, Ragweed” value [13, 19] was 98. For the same compound, the “Plant response rating, Ragweed” value [13, 20] was 85, the “Plant response rating, Ragweed” value [13, 21] was 90 and the “Plant response rating, Ragweed” value [13, 22] was 95. The “Ragweed plant response rating” value [13, 23] was 98, the “Ragweed plant response rating” value [13, 24] was 95 and the “Ryegrass, Italian plant response rating” value [14, 17] was 80. The “Plant response rating, Ryegrass, Italian” value [14, 18] was 90, the “Plant response rating, Ryegrass, Italian” value [14, 19] was 90 and the “Plant response rating, Ryegrass, Italian” value [14, 20] was 50. For the same compound, the “Plant response rating, Ryegrass, Italian” value [14, 21] was 85, the “Plant response rating, Ryegrass, Italian” value [14, 22] was 90 and the “Ryegrass, Italian plant response rating” value [14, 23] was 95. For the same compound, the “Ryegrass, Italian plant response rating” value [14, 24] was 85, the “Oat, Wild plant response rating” value [15, 17] was 60 and the “Plant response rating, Oat, Wild” value [15, 18] was 90. For the same compound, the “Plant response rating, Oat, Wild” value [15, 19] was 90, the “Oat, Wild plant response rating” value [15, 24] was 80 and the “Kochia plant response rating” value [16, 17] was 0. The “Plant response rating, Kochia” value [16, 18] was 5, the “Plant response rating, Kochia” value [16, 19] was 80 and the “Kochia plant response rating” value [16, 24] was 0.
